Here are results for three compounds from patent US20200397332A1, “NON-INVASIVE METHOD AND DEVICE FOR DETERMINING DRUG CONCENTRATIONS IN BLOOD” (priority 2019, published 2020).

As a reminder, the Tmax is the time at which the peak concentration occurs.

The conditions of data set [1]: caffeine: one cup of coffee (100 mg caffeine); alcohol: no sign of alcohol in blood; cited from earlier work.
For data set [2] the following is noted: Din=50 mg caffeine; taken from known drug data; cited from earlier work.
Data set [3] is described as follows: clinical. Particulars: human, in vivo, po.
Text: FIG. 6 is illustrative of the GM magnetic signal vs time at different pressures by adjusting the pressure applied by the pressure cuff 12 on the arm of the patient. Initially, the cuff pressure is zero and the GM signal is flat. After around 10 seconds, the cuff pressure is increased and after 20 seconds, the cuff pressure reaches approximately 120 mm Hg. […] The GM signal is almost flat from 20 seconds to 60 seconds because the flow of blood through the blood vessel is stopped. When the cuff pressure was released quickly at about 60 seconds, the GM signal returned to the level similar to the initial measurement. […] At the pressure of 120 mm Hg or greater there is, no arterial blood flow and no electrical current. The difference of two levels in the beginning and around 60 seconds gives the absolute value of the magnetic field which is detected by the GM sensor. […]
Basic data for the detected drugs includes the initial dosages of the drug Din which depend on the maximum concentration Cmax in blood at a certain time Tmax. […] The absolute value of the drug concentration is determined based on the measured signal Vs and time Tmax at which the concentration of drug is detected at a maximum value in the blood stream.
The signal Vs was measured at different times after ingestion of the caffeine to verify the time dependence of the drug concentration in blood. […]
The nature of data set [4]: clinical. The following applies: human, in vivo, po. Here is the method: The Tmax can be identified from this dependence.
FIG. 11 is illustrative of the relative change in charge of the ions inside the arterial blood stream vs time after ingesting 500 mg of acetaminophen. […] The Tmax can be identified from this graph, and is detected as being approximately 30 min.
The initial dosage is Din is ˜500 mg of acetaminophen. The maximum drug concentration in arterial blood stream is 60 mg/L at Din=500 mg ([…]) and Tmax˜30 min from the measurements from the GM sensor.
Vs. The next step is to calculate (Vs0−Vs)0.
This is another data set of the same source.

The conditions of data set [5]: Din=500 mg acetaminophen; taken from known drug data; cited from earlier work.

Consider `CCO` [alcohol], for which the “time after which the level in blood has declined to zero” value in data set [1] is recorded as “about 12 hours”.
Regarding `Cn1c(=O)c2c(ncn2C)n(C)c1=O` [caffeine], the “time after which the level in blood has declined to zero” value in data set [1] is given as “about 4 hours”. Moreover, the “Cmax, maximum drug concentration in the arterial blood stream” value in data set [2] is “about 1 mg/L”. Also, the Tmax in “clinical [3]” is ~2 h.
Turning to `CC(=O)Nc1ccc(O)cc1` [acetaminophen], in “clinical [4]”, the Tmax is ~0.5 h. Moreover, the “Cmax, maximum drug concentration in arterial blood stream” value in data set [5] was 60 µg/mL.
